Assay results taken from patent US9951057B2, “COMT inhibiting methods and compositions” (Lieber Institute for Brain Development, priority 2015, dated 2018).

Assays:
[1] = target: T1, catechol-O-methyltransferase (COMT) (Homo sapiens, UniProt P21964); assay: COMT inhibition assay (HTRF, production of SAH from SAM); assay type: biochemical; conditions: recombinant human COMT, table does not say whether MB-COMT or S-COMT
T1 construct: M51A variant) was expressed in HEK 293F cells
T1 sequence (P21964 52-271 limits assumed): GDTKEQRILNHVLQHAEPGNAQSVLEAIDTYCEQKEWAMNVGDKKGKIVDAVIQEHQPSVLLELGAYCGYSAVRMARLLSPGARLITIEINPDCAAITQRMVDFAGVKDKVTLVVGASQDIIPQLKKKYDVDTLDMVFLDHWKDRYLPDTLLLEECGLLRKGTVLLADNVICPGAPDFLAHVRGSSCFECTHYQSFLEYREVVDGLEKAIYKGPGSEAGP
Method: The ability of compounds to inhibit the activity of catechol-O-methyltransferase (COMT) was determined by a homogenous time-resolved fluorescent (HTRF) assay (Lina et al, 2012; kit from CisBio, Codolet, France). This assay measures the production of S-adenosyl homocysteine (SAH) from the methyl donor S-adenosyl methionine. Recombinant human membrane bound COMT (MB-COMT; M51A variant) was expressed in HEK 293F cells using 293Fectin (Life Technologies, Gent, Belgium) and membranes prepared. The membranes were re-suspended in buffer (20 mM Tris/HCl pH 7; 10 mM glycerol; 2 mM MgCl2; 10 mM NaCl), aliquoted and stored at −80° C. Recombinant human soluble COMT (S-COMT), Val158 variant and a hexa-His tag on the N-terminus, was purified using Ni-NTA chromatography, the His tag removed and stored in buffer as above.
For the human MB-COMT assay, membranes (62 ng/well) were incubated with SAM (20 μM final, CisBio) and dopamine (1.5 μM final; Sigma H8502, Diegem, Belgium) in the presence or absence of varying concentrations (typically 10 concentrations ranging from 10 μM to 0.1 nM) of compound for 40 min at 37° C. in 384-well microtitre plates (10 μl per well final volume). The reaction was terminated by the addition of acylation buffer and the amount of SAH produced determined according to manufacturer's instructions. Specific inhibition as that inhibited by a high concentration of tolcapone (10 μM; synthesised at UCB) and all experiments were validated using a control curve to tolcapone.
The human S-COMT assay was performed as above except that 0.15 ng enzyme/well was incubated with SAM (20 μM final) and dopamine (100 μM final) for 15 min at 37° C. and SAH production determined.
HTRF readings were performed using a Perkin Elmer Envision and results expressed as concentration of SAH produced using a standard curve. Results were analysed using non-linear regression to the 4-parameter logistic equation and pIC50 (−log 10 concentration of drug which inhibits enzyme activity/SAH production by 50%) determined.

[2] = target: T2, aromatic amino acid decarboxylase (AAAD) (Homo sapiens, UniProt P20711); conditions: given with L-DOPA; Nutt, Woodward et al. 1985; cited from earlier work
T2 sequence (P20711 1-480): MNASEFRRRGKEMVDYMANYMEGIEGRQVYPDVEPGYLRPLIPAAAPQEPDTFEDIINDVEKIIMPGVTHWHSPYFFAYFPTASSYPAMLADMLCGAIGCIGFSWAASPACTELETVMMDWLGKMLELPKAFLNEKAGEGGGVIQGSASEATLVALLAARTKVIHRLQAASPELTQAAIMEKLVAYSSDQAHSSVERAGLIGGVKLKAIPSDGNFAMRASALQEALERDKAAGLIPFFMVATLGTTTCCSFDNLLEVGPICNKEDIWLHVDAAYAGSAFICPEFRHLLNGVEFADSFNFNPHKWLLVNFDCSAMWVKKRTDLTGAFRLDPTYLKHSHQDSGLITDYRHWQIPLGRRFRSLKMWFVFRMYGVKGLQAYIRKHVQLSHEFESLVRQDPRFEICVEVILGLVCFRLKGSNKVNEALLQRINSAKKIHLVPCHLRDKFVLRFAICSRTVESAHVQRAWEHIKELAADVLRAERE

[3] = clinical use; Olanow and Watkins 2007; cited from earlier work
[4] = Russ, et al. 1999; cited from earlier work
[5] = Nutt and Fellman 1984; cited from earlier work

Compound	Activity range (pIC50) [1]	further results
O=S(=O)(c1cc(F)c(O)c2ncccc12)C1CCCC1 [Example 10, 7-fluoro-5-cyclopentylsulfonyl-quinolin-8-ol]	+++ (three plus signs (+++) is associated with a pIC50 of above about 7)	–
O=S(=O)(c1ccccn1)c1cc(Cl)c(O)c2ncccc12 [Example 19, 7-chloro-5-(2-pyridylsulfonyl)quinolin-8-ol]	++ (two plus signs (++) is associated with a pIC50 of from about great than 6 to 7)	–
C[C@@](Cc1ccc(O)c(O)c1)(NN)C(=O)O [Carbidopa]	–	reduction of the efficacious L-DOPA dose [2]: 60-80%
O=S(=O)(c1ccccn1)c1cc(F)c(O)c2ncccc12 [Example 16, 7-fluoro-5-(2-pyridylsulfonyl)quinolin-8-ol]	++ (two plus signs (++) is associated with a pIC50 of from about great than 6 to 7)	–
CC(C)CS(=O)(=O)c1cc(Cl)c(O)c2ncccc12 [Example 11, 7-chloro-5-isobutylsulfonyl-quinolin-8-ol]	+ (a single plus (+) is associated with a pIC50 of from about 4.5 to 6)	–
CC(C)CS(=O)(=O)c1ccc(O)c2ncccc12 [Example 1, 5-isobutylsulfonylquinolin-8-ol]	+++ (three plus signs (+++) is associated with a pIC50 of above about 7)	–
C[C@H]1CCCN1S(=O)(=O)c1ccc(O)c2ncccc12 [Example 6]	+++ (three plus signs (+++) is associated with a pIC50 of above about 7)	–
Cc1ccc(S(=O)(=O)c2cc(Cl)c(O)c3ncccc23)c(C)c1 [Example 20, 7-chloro-5-(2,4-dimethylphenyl)sulfonyl-quinolin-8-ol]	+++ (three plus signs (+++) is associated with a pIC50 of above about 7)	–
Cc1ccc(C(=O)c2cc(O)c(O)c([N+](=O)[O-])c2)cc1 [tolcapone]	–	liver injury [3]: associated with serious liver injury, including three deaths; brain penetration / levels in the brain [4]: low but measurable levels in the brain
Cc1ccc(S(=O)(=O)c2cc(Cl)c(O)c3ncccc23)cc1C [Example 17, 7-chloro-5-(3,4-dimethylphenyl)sulfonyl-quinolin-8-ol]	++ (two plus signs (++) is associated with a pIC50 of from about great than 6 to 7)	–
O=S(=O)(c1ccc[n+]([O-])c1)c1cc(Cl)c(O)c2ncccc12 [Example 28, 7-chloro-5-(1-oxidopyridin-1-ium-3-yl)sulfonyl-quinolin-8-ol]	+ (a single plus (+) is associated with a pIC50 of from about 4.5 to 6)	–
O=S(=O)(c1ccc(C(F)(F)F)cc1)c1cc(Cl)c(O)c2ncccc12 [Example 18, 7-chloro-5-[4-(trifluoromethyl)phenyl]sulfonyl-quinolin-8-ol]	++ (two plus signs (++) is associated with a pIC50 of from about great than 6 to 7)	–
O=S(=O)(c1cc(Cl)c(O)c2ncccc12)C1CCCC1 [Example 8, 7-chloro-5-cyclopentylsulfonyl-quinolin-8-ol]	++ (two plus signs (++) is associated with a pIC50 of from about great than 6 to 7)	–
O=S(=O)(c1cc(Cl)c(O)c2ncccc12)N1CCCC1 [Example 7, 7-chloro-5-pyrrolidin-1-ylsulfonyl-quinolin-8-ol]	++ (two plus signs (++) is associated with a pIC50 of from about great than 6 to 7)	–
CCCCCCCCS(=O)(=O)c1ccc(O)c2ncccc12 [Example 2, 5-octylsulfonylquinolin-8-ol]	+++ (three plus signs (+++) is associated with a pIC50 of above about 7)	–
O=S(=O)(c1ccc(C(F)(F)F)cc1)c1cc(F)c(O)c2ncccc12 [Example 15, 7-fluoro-5-[4-(trifluoromethyl)phenyl]sulfonyl-quinolin-8-ol]	++ (two plus signs (++) is associated with a pIC50 of from about great than 6 to 7)	–

Compound	Activity range (pIC50) [1]	further results
O=S(=O)(c1cccnc1)c1cc(Cl)c(O)c2ncccc12 [Example 27, 7-chloro-5-(3-pyridylsulfonyl)quinolin-8-ol]	+ (a single plus (+) is associated with a pIC50 of from about 4.5 to 6)	–
O=S(=O)(c1cc(Cl)cc(Cl)c1)c1cc(Cl)c(O)c2ncccc12 [Example 21, 7-chloro-5-(3,5-dichlorophenyl)sulfonyl-quinolin-8-ol]	+ (a single plus (+) is associated with a pIC50 of from about 4.5 to 6)	–
O=S(=O)(c1cccc(-c2ccccc2)c1)c1cc(Cl)c(O)c2ncccc12 [Example 25, 7-chloro-5-(3-phenylphenyl)sulfonyl-quinolin-8-ol]	++ (two plus signs (++) is associated with a pIC50 of from about great than 6 to 7)	–
O=S(=O)(c1ccc(O)c2ncccc12)C1CCOCC1 [Example 3, 5-tetrahydropyran-4-ylsulfonyquinolin-8-ol]	++ (two plus signs (++) is associated with a pIC50 of from about great than 6 to 7)	–
CC(C)S(=O)(=O)c1cc(Cl)c(O)c2ncccc12 [Example 12, 7-chloro-5-isopropylsulfonyl-quinolin-8-ol]	++ (two plus signs (++) is associated with a pIC50 of from about great than 6 to 7)	–
O=S(=O)(c1nccs1)c1cc(Cl)c(O)c2ncccc12 [Example 22, 7-chloro-5-thiazol-2-ylsulfonyl-quinolin-8-ol]	++ (two plus signs (++) is associated with a pIC50 of from about great than 6 to 7)	–
O=S(=O)(c1ccc(F)cc1)c1cc(Cl)c(O)c2ncccc12 [Example 9, 7-chloro-5-(4-fluorophenyl)sulfonyl-quinolin-8-ol]	++ (two plus signs (++) is associated with a pIC50 of from about great than 6 to 7)	–
N[C@@H](Cc1ccc(O)c(O)c1)C(=O)O [L-DOPA, L-dihydroxyphenylalanine]	–	percentage of exogenously administered L-DOPA that reaches the brain [5]: ~1%
O=S(=O)(c1ccc(Cl)c(Cl)c1)c1cc(Cl)c(O)c2ncccc12 [Example 24, 7-chloro-5-(3,4-dichlorophenyl)sulfonyl-quinolin-8-ol]	++ (two plus signs (++) is associated with a pIC50 of from about great than 6 to 7)	–
O=S(=O)(c1ccc(F)cc1)c1cc(F)c(O)c2ncccc12 [Example 14, 7-fluoro-5-(4-fluorophenyl)sulfonyl-quinolin-8-ol]	++ (two plus signs (++) is associated with a pIC50 of from about great than 6 to 7)	–
CCN(CC)C(=O)/C(C#N)=C/c1cc(O)c(O)c([N+](=O)[O-])c1 [entacapone]	–	brain penetration / levels in the brain [4]: negligible brain penetration
Cc1cccc(S(=O)(=O)c2cc(Cl)c(O)c3ncccc23)c1 [Example 23, 7-chloro-5-(m-tolylsulfonyl)quinolin-8-ol]	++ (two plus signs (++) is associated with a pIC50 of from about great than 6 to 7)	–
C[C@@H]1CCCN1S(=O)(=O)c1ccc(O)c2ncccc12 [Example 5, 5-[(2R)-2-methylpyrrolidin-1-yl]sulfonylquinolin-8-ol]	+++ (three plus signs (+++) is associated with a pIC50 of above about 7)	–
CC(C)(C)c1ccc(S(=O)(=O)c2cc(Cl)c(O)c3ncccc23)cc1 [Example 26, 5-(4-tert-butylphenyl)sulfonyl-7-chloro-quinolin-8-ol]	+ (a single plus (+) is associated with a pIC50 of from about 4.5 to 6)	–
O=S(=O)(c1cc(Cl)c(O)c2ncccc12)C1CCCCC1 [Example 13, 7-chloro-5-cyclohexylsulfonyl-quinolin-8-ol]	+++ (three plus signs (+++) is associated with a pIC50 of above about 7)	–
